Values of other authors as cited in patent US7851640B2, “Catalytic enantioselective synthesis of flavanones and chromanones” (Northwestern University, priority 2008, dated 2010).

Test system: MMP-2
Details: PCa cells treated with genistein

## O=c1c(-c2ccc(O)cc2)coc2cc(O)cc(O)c12 [genistein]
  levels of MMP-2 gene transcript and protein: decreased levels of both MMP-2 gene transcript and protein
